For this test, the system named is patients with PD and constipation. The test can be described thus: Stage 2 CNS symptoms (UPDRS, MMSE, PDHQ, BDI-II). The test is classed as in vivo, human. To be noted: for UPDRS Part 1 (NMS) (Mean, SD) / BDI-II (Mean, SD) / PDHQ (Mean, SD): n = 34; for hallucinations and delusions improved or disappeared: during treatment, patients with hallucinations or delusions at baseline. An excerpt:
(9) Unified Parkinson's Disease Rating Scale (UPDRS), which consists of 42 items in four subscales (Part I=Non-Motor Aspects of Experiences of Daily Living (nM-EDL) (1.1 cognitive impairment, 1.2 hallucinations and psychosis, 1.3 depressed mood, Part II=Motor Aspects of Experiences of Daily Living (M-EDL), Part III=Motor Examination, and Part IV=Motor Complications;
Exploratory end-points, in addition to constipation, included for example, (i) depression assessed using the Beck Depression Inventory (BDI-II) (Steer et al. 2000) and Unified Parkinson's Disease Rating Scale (UPDRS); (ii) cognition assessed using the Mini Mental State Examination (MMSE) (Palsteia et al., 2018), Unified Parkinson's Disease Rating Scale (UPDRS), and Trail Making Test (TMT); (iii) sleep and REM-behavior disorder (RBD) using a daily sleep diary, I-Button Temperature Assessment, a REM sleep behavior disorder (RBD) questionnaire (RBDQ) (Stiasny-Kolster et al. 2007), and the UPDRS; (iv) hallucinations assessed using the PD hallucinations questionnaire (PDHQ) (Papapetropoulos et al. 2008), the UPDRS, and direct questioning; (v) fatigue using the Parkinson's Disease Fatigue Scale (PFS-16) and the UPDRS; (vi) motor functions using the UPDRS; and (vii) non-motor functions using the UPDRS.
Assessments were made at baseline and at the end of the fixed dose and washout periods. Circadian system status was evaluated by continuously monitoring wrist skin temperature (Thermochron iButton DS1921H; Maxim, Dallas) following published procedures (Sarabia et al. 2008).
An exploratory analysis was done with respect to the sleep data, the body temperature data, mood, fatigue, hallucinations, cognition and other motor and non-motor symptoms of PD. Continuous measurements within a subject were compared with a paired t-test and continuous measurements between subject groups were compared with a two-group t-test. Categorical data were compared with a chi-squared test or a Fisher's exact test if the expected cell counts are too small for a chi-squared test.

[1] abbreviates: Stage 2, fixed dose (during treatment).
Where [2] appears, read: Stage 2, fixed dose (during treatment), listed as Squalamine (ENT-01).
The mark [3] stands for this setting: Stage 2, wash-out, listed as Squalamine (ENT-01).

Consider `CC(C)[C@@H](CC[C@@H](C)[C@H]1CC[C@H]2[C@@H]3[C@H](O)C[C@H]4C[C@@H](NCCCNCCCCN)CC[C@]4(C)[C@H]3CC[C@]12C)OS(=O)(=O)O` (single isomer, unassigned) [squalamine (ENT-01), squalamine], for which the “hallucinations and delusions improved or disappeared” value is 5 of 6. For the same compound, the “time hallucinations and delusions did not return following discontinuation” value (1 patient) stood at 4 weeks. The “UPDRS Part 1 (NMS) (Mean, SD)” value (Stage 2, end of fixed dose) is listed as 10.6 (6.18)). In addition, for the setting “Stage 2, end of wash-out”, the “UPDRS Part 1 (NMS) (Mean, SD)” value is on record as 9.5 (5.27). For the setting “Stage 2, end of wash-out, listed as aminosterol”, the “UPDRS Part 1 (NMS) (Mean, SD)” value is given as 9.5. Besides, under setting [1], the “BDI-II (Mean, SD)” value was 9.9 and the “PDHQ (Mean, SD)” value worked out at 1.8. Under setting [2], the “BDI-II (Mean, SD)” value was 9.9 (6.45) and the “PDHQ (Mean, SD)” value is 1.8 (3.34). Also, the “BDI-II (Mean, SD)” value (Stage 2, fixed dose (during treatment), listed as aminosterol) amounted to 9.9. Further, under “Stage 2, wash-out”, the “BDI-II (Mean, SD)” value is recorded as 8.7 and the “PDHQ (Mean, SD)” value stood at 0.9. Under setting [3], the “BDI-II (Mean, SD)” value is recorded as 8.7 (5.19) and the “PDHQ (Mean, SD)” value was 0.9 (2.33). For the setting “Stage 2, wash-out, listed as aminosterol”, the “BDI-II (Mean, SD)” value turned out to be 8.7. Also, the “time hallucinations and delusions did not return following discontinuation” value (another patient) was 2 weeks. Besides, the “hallucinations and delusions improved or disappeared” value (listed as ENT-01) was “five”.

The values above are taken from patent US20200038418A1, “METHODS OF TREATING AUTISM SPECTRUM DISORDER USING AMINOSTEROL COMPOSITIONS” (Enterin, Inc., priority 2018, published 2020).
